From US20240269304A1, “BCL-XL INHIBITOR ANTIBODY-DRUG CONJUGATES AND METHODS OF USE THEREOF” (Novartis AG, priority 2020, published 2024)
Where two headings read alike, the source gives them in different places.

Tested on: H1650 cells
Test: CellTiterGlo (CTG) cell viability, 3D, 120 h, H1650 (Example 8)
Assay type: cell-based, human
Procedure: H1650 cells were cultivated in RPMI supplemented with 10% heat inactivated fetal bovine serum, penicillin (100 IU/ml), streptomycin (100 μg/ml) and L-glutamine (2 mM). Cell lines were cultured at 37° C. in a humidified atmosphere containing 5% 002. Cells were seeded in 96 microwell round bottom plates (96 microwell Low attachment plates , Costar reference 7007) and exposed to the payloads or ADCs for 120 h (serially diluted; 9 concentrations each, duplicates). Effects of payloads or ADCs on cell viability were assessed after 5 days of incubation at 37° C./5% CO2 by quantification of cellular ATP levels using CellTiterGlo at 75 μL reagent/well. All the conditions were tested in duplicates. Luminescence was quantified on a multipurpose plate reader. IC50S were calculated using standard four-parametric curve fitting. […] Each experiment was performed at least twice, with results being reproducible.

[1] = Homo sapiens, NCI-H1650, H1650 3D, experiment n1, read-out: H1650 3D CTG IC50 n1
[2] = Homo sapiens, NCI-H1650, H1650 3D, experiment n2, read-out: H1650 3D CTG IC50 n2
[3] = Homo sapiens, NCI-H1650, H1650 3D, mean of n1 and n2, read-out: H1650 3D CTG IC50 Mean of n1 and n2

Row | SMILES | IC50 [1] [nM] | IC50 [2] [nM] | IC50 [3] [nM] | IC50 (H1650 3D, experiment n1, read-out: H1650 3D CTG IC50 n1) [nM] | IC50 (H1650 3D, experiment n2, read-out: H1650 3D CTG IC50 n2) [nM] | IC50 (H1650 3D, mean of n1 and n2, read-out: H1650 3D CTG IC50 Mean of n1 and n2) [nM]
1 | Cc1c(Nc2nc3ccccc3s2)nnc2c1CCCN2c1ccc(-c2cnn(CC34CC5(C)CC(C)(C3)CC(OCCNCCC(=O)O)(C5)C4)c2C)c(C(=O)O)n1 [P71, 6-[3-(1,3-benzothiazol-2-ylamino)-4-methyl-6,7-dihydro-5H-pyrido[2,3-c]pyridazin-8-yl]-3-[1-[[3-[2-(2-carboxyethylamino)ethoxy]-5,7-dimethyl-1-adamantyl]methyl]-5-methyl-pyrazol-4-yl]pyridine-2-carboxylic acid] | 16.3 | 13.4 | 14.8 | – | – | –
2 | Cc1c(Nc2nc3ccccc3s2)nnc2c1CCCN2c1ccc(-c2cnn(CC34CC5(C)CC(C)(C3)CC(OCCN3CCCC3)(C5)C4)c2C)c(C(=O)N2CCCC2)n1 [P74, [6-[3-(1,3-benzothiazol-2-ylamino)-4-methyl-6,7-dihydro-5H-pyrido[2,3-c]pyridazin-8-yl]-3-[1-[[3,5-dimethyl-7-(2-pyrrolidin-1-ylethoxy)-1-adamantyl]methyl]-5-methyl-pyrazol-4-yl]-2-pyridyl]-pyrrolidin-1-yl-methanone] | 2 | 1.86 | 1.93 | – | – | –
3 | Cc1c(Nc2nc3ccccc3s2)nnc2c1CCCN2c1ccc(-c2cnn(C[C@]34C[C@]5(C)C[C@](C)(C3)C[C@@](OCCN(C)CCO)(C5)C4)c2C)c(C(=O)O)n1 [P35, 6-[3-(1,3-benzothiazol-2-ylamino)-4-methyl-6,7-dihydro-5H-pyrido[2,3-c]pyridazin-8-yl]-3-[1-[[3-[2-[2-hydroxyethyl(methyl)amino]ethoxy]-5,7-dimethyl-1-adamantyl]methyl]-5-methyl-pyrazol-4-yl]pyridine-2-carboxylic acid] | 0.23 | 0.27 | 0.25 | – | – | –
4 | CNCCOC1Cc2c(nnc(Nc3nc4ccccc4s3)c2C)N(c2nc(C(=O)O)c(CCCOc3ccc(C#CCN(C)C)cc3F)s2)C1 (stereo not drawn) [P16, 2-{3-[(1,3-Benzothiazol-2-yl)amino]-4-methyl-6-[2-(methylamino)ethoxy]-5H,6H,7H,8H-pyrido[2,3-c]pyridazin-8-yl}-5-(3-{4-[3-(dimethylamino)prop-1-yn-1-yl]-2-fluorophenoxy}propyl)-1,3-thiazole-4-carboxylic acid] | 6.1 | 6.2 | 6.15 | – | – | –
5 | COCCCN(C)CCCC12CC3(C)CC(C)(C1)CC(Cn1ncc(-c4ccc(N5CCCc6c5nnc(Nc5nc7ccccc7s5)c6C)nc4C(=O)O)c1C)(C3)C2 [P50, 6-[3-(1,3-benzothiazol-2-ylamino)-4-methyl-6,7-dihydro-5H-pyrido[2,3-c]pyridazin-8-yl]-3-[1-[[3-[3-[3-methoxypropyl(methyl)amino]propyl]-5,7-dimethyl-1-adamantyl]methyl]-5-methyl-pyrazol-4-yl]pyridine-2-carboxylic acid] | 0.55 | 0.21 | 0.38 | – | – | –
6 | Cc1c(Nc2nc3ccccc3s2)nnc2c1CCCN2c1nc(C(=O)[O-])c(CCCOc2ccc(C#CCN3CC[N+](C)(Cc4ccc(NC(=O)[C@H](CCCNC(N)=O)NC(=O)[C@@H](NC(=O)CCOCCN5C(=O)CC(C)C5=O)C(C)C)cc4)CC3)cc2F)s1 (stereo partly drawn) [Ab C - L9A-P10] | – | – | – | 0.3 | 0.5 | 0.4
7 | COCCCN(C)CCOC12CC3(C)CC(C)(CC(Cn4ncc(-c5ccc(N6CCCc7c6nnc(Nc6nc8ccccc8s6)c7C)nc5C(=O)O)c4C)(C3)C1)C2 [P36, 6-[3-(1,3-benzothiazol-2-ylamino)-4-methyl-6,7-dihydro-5H-pyrido[2,3-c]pyridazin-8-yl]-3-[1-[[3-[2-[3-methoxypropyl(methyl)amino]ethoxy]-5,7-dimethyl-1-adamantyl]methyl]-5-methyl-pyrazol-4-yl]pyridine-2-carboxylic acid] | 0.26 | 0.31 | 0.29 | – | – | –
8 | Cc1c(Nc2nc3cc(F)ccc3s2)nnc2c1CCCN2c1ccc(-c2cnn(CC34CC5(C)CC(C)(C3)CC(OCCN3CCCC3)(C5)C4)c2C)c(C(=O)O)n1 [P63, 3-[1-[[3,5-dimethyl-7-(2-pyrrolidin-1-ylethoxy)-1-adamantyl]methyl]-5-methyl-pyrazol-4-yl]-6-[3-[(5-fluoro-1,3-benzothiazol-2-yl)amino]-4-methyl-6,7-dihydro-5H-pyrido[2,3-c]pyridazin-8-yl]pyridine-2-carboxylic acid] | 3.73 | 2.03 | 2.88 | – | – | –
9 | Cc1c(Nc2nc3ccccc3s2)nnc2c1CCCN2c1ccc(-c2cnn(C[C@]34C[C@]5(C)C[C@](C)(C3)C[C@@](OCCN(C)CCCCO)(C5)C4)c2C)c(C(=O)O)n1 [P37, 6-[3-(1,3-benzothiazol-2-ylamino)-4-methyl-6,7-dihydro-5H-pyrido[2,3-c]pyridazin-8-yl]-3-[1-[[3-[2-[4-hydroxybutyl(methyl)amino]ethoxy]-5,7-dimethyl-1-adamantyl]methyl]-5-methyl-pyrazol-4-yl]pyridine-2-carboxylic acid] | 0.4 | 1.2 | 0.8 | – | – | –
10 | Cc1c(Nc2nc3ccccc3s2)nnc2c1CCCN2c1ccc(-c2cnn(CC34CC5(C)CC(C)(CC(CCCN(C)CC(=O)O)(C5)C3)C4)c2C)c(C(=O)O)n1 [P55, 6-[3-(1,3-benzothiazol-2-ylamino)-4-methyl-6,7-dihydro-5H-pyrido[2,3-c]pyridazin-8-yl]-3-[1-[[3-[3-[carboxymethyl(methyl)amino]propyl]-5,7-dimethyl-1-adamantyl]methyl]-5-methyl-pyrazol-4-yl]pyridine-2-carboxylic acid] | 6.15 | 6.88 | 6.51 | – | – | –
11 | Cc1c(Nc2nc3ccccc3s2)nnc2c1CCCN2c1ccc(-c2cnn(C[C@]34C[C@]5(C)C[C@](C)(C3)C[C@@](OCCNCC(CO)CO)(C5)C4)c2C)c(C(=O)O)n1 [P23, 6-[3-(1,3-benzothiazol-2-ylamino)-4-methyl-6,7-dihydro-5H-pyrido[2,3-c]pyridazin-8-yl]-3-[1-[[3-[2-[[3-hydroxy-2-(hydroxymethyl)propyl]amino]ethoxy]-5,7-dimethyl-1-adamantyl]methyl]-5-methyl-pyrazol-4-yl]pyridine-2-carboxylic acid] | 4 | 2.8 | 3.4 | – | – | –
12 | Cc1cc(N(C)c2nc(C(=O)O)c(CCCOc3ccc(C#CC(C)N(C)C)cc3F)s2)nnc1Nc1nc2ccccc2s1 (stereo not drawn) [P11, 2-[[6-(1,3-Benzothiazol-2-ylamino)-5-methyl-pyridazin-3-yl]-methyl-amino]-5-[3-[4-[3-(dimethylamino)but-1-ynyl]-2-fluoro-phenoxy]propyl]thiazole-4-carboxylic acid] | 0.7 | 1.2 | 0.95 | – | – | –
13 | Cc1c(Nc2nc3ccccc3s2)nnc2c1CCCN2c1ccc(-c2cnn(CC34CC5(C)CC(C)(CC(CCCNCCCCO)(C5)C3)C4)c2C)c(C(=O)O)n1 [P72, 6-[3-(1,3-benzothiazol-2-ylamino)-4-methyl-6,7-dihydro-5H-pyrido[2,3-c]pyridazin-8-yl]-3-[1-[[3-[3-(4-hydroxybutylamino)propyl]-5,7-dimethyl-1-adamantyl]methyl]-5-methyl-pyrazol-4-yl]pyridine-2-carboxylic acid] | 5.07 | 5.57 | 5.32 | – | – | –
14 | Cc1c(Nc2nc3ccccc3s2)nnc2c1CCCN2c1ccc(-c2cnn(CC34CC5(C)CC(C)(CC(CCCN(C)CCC(=O)O)(C5)C3)C4)c2C)c(C(=O)O)n1 [P56, 6-[3-(1,3-benzothiazol-2-ylamino)-4-methyl-6,7-dihydro-5H-pyrido[2,3-c]pyridazin-8-yl]-3-[1-[[3-[3-[2-carboxyethyl(methyl)amino]propyl]-5,7-dimethyl-1-adamantyl]methyl]-5-methyl-pyrazol-4-yl]pyridine-2-carboxylic acid] | 13.9 | 2.95 | 8.43 | – | – | –
15 | Cc1c(Nc2nc3ccccc3s2)nnc2c1CCCN2c1ccc(-c2cnn(CC34CC5(C)CC(C)(CC(CCCNCCC(=O)O)(C5)C3)C4)c2C)c(C(=O)O)n1 [P54, 6-[3-(1,3-benzothiazol-2-ylamino)-4-methyl-6,7-dihydro-5H-pyrido[2,3-c]pyridazin-8-yl]-3-[1-[[3-[3-(2-carboxyethylamino)propyl]-5,7-dimethyl-1-adamantyl]methyl]-5-methyl-pyrazol-4-yl]pyridine-2-carboxylic acid] | 10.7 | 11.8 | 11.2 | – | – | –
16 | COCCCNCCOC12CC3(C)CC(C)(CC(Cn4ncc(-c5ccc(N(C)c6cc(C)c(Nc7nc8ccccc8s7)nn6)nc5C(=O)O)c4C)(C3)C1)C2 [P29, 6-[[6-(1,3-benzothiazol-2-ylamino)-5-methyl-pyridazin-3-yl]-methyl-amino]-3-[1-[[3-[2-(3-methoxypropylamino)ethoxy]-5,7-dimethyl-1-adamantyl]methyl]-5-methyl-pyrazol-4-yl]pyridine-2-carboxylic acid] | 0.57 | 0.47 | 0.52 | – | – | –
17 | Cc1c(Nc2nc3ccccc3s2)nnc2c1CCCN2c1ccc(-c2cnn(CC34CC5(C)CC(C)(C3)CC(OCCNCC(=O)O)(C5)C4)c2C)c(C(=O)O)n1 [P47, 6-[3-(1,3-benzothiazol-2-ylamino)-4-methyl-6,7-dihydro-5H-pyrido[2,3-c]pyridazin-8-yl]-3-[1-[[3-[2-(carboxymethylamino)ethoxy]-5,7-dimethyl-1-adamantyl]methyl]-5-methyl-pyrazol-4-yl]pyridine-2-carboxylic acid] | 6.54 | 7.35 | 6.95 | – | – | –
